Patent US20070183995A1, “Compounds useful as agonists of A2A adenosine receptors, cosmetic compositions with A2A agonists and a method for using the same” (Conopco, Inc., d/b/a Unilever, priority 2006, published 2007)

Test system: Melanoderm cultures (melanogenesis)
Experiment: Melanoderm human skin equivalent lightening test (Hunter Lab L value)
Format: cell-based
Details: for Average L Value / L Value Range: 3 micromolar in media, dosed 10 times in 3 weeks, Hunter Lab L value, Minolta CR-10 chromameter; for Average L Value: averaged; for L Value Range: triplicate; for ΔL: difference in average Hunter Lab L value, treated vs untreated control cultures, 3 micromolar, 3 weeks
Excerpt: As used herein, ΔL is defined to mean the difference in Hunter Lab L values when comparing three, three (3) week old Mattek Melanoderm cultures that have not been treated with a composition comprising an agonist of A2A receptors to three, three (3) week old Mattek melanoderm cultures that have been treated with a composition comprising an agonist of A2A receptors wherein treated means: • (a) placing the melanoderm culture within a six (6) well tissue culture dish and set about 0.3 cm off of the tissue culture dish; • (b) subjecting the melanoderm culture to a 3 micromolar composition having an agonist of A2A adenosine receptors, the composition being one prepared from a 10 millimolar solution of A2A agonist and carrier (e.g., dimethyl sulfoxide) having been diluted with Dulbecco's Modified Eagle Media; and • (c) comparing the treated and untreated cultures by obtaining average L values for each with a Minolta CR-10 chromameter.
Commercially available human skin equivalents (Melanoderm from Mattek) were obtained for testing the impact of agonists of A2A adenosine receptors on melanogenesis. Solutions having a final concentration of three (3) micromolar were prepared from a 10 millimolar dimethyl sulfoxide stock solution and dosed ten (10) times in a three (3) week period into the media of the melanoderm cultures. The media consisted of commercially available basal Dulbecco's Modified Eagles media, prepared and treated in the manner set forth in the manufacture's instructions. For long term maintenance of the Melanoderms, the basal media was supplemented with bFGF and alpha MSH to stimulate melanocyte growth and melanogenesis. Each treatment condition was done in triplicate and three (3) sets were made for each treatment, as well as for a control (culture not treated with the agonist). The cultures were maintained at a temperature of about 37° C. and stored in a humidified, 5% CO2 incubator during the dosing period, but removed while being dosed.
After a three (3) week period, Hunter lab L value readings were taken for each condition (with a.Minolta CR-10 chromameter) and then averaged.

SMILES | Average L Value | L Value Range | ΔL
CCNC(=O)[C@H]1O[C@@H](n2cnc3c(N)nc(NCCc4ccc(CCC(=O)O)cc4)nc32)[C@H](O)[C@@H]1O [Agonist 1, 2-para(2-carboxyethyl)phenethylamino-5′-N-ethyl carboxamido adenosine] | 31.9 | 30.3-33.3 | 1.7
Nc1nc(Nc2ccccc2)nc2c1ncn2[C@@H]1O[C@H](CO)[C@@H](O)[C@H]1O [Agonist 2, phenylaminoadenosine] | 43.8 | 43.2-44.2 | 5.2
